Results on 1 molecule are retold here after patent publication US20250034116A1, “1,4-DIHETEROCYCLIC SUBSTITUTED AROMATIC RING OR AROMATIC HETEROCYCLIC COMPOUND AND USE THEREOF” (BeBetter Med Inc., priority 2022, published 2025).

SMILES strings stand for the structures.

As a reminder, the IC50 is the concentration needed to halve the response being measured. Usually AUC(0-inf) stands for the area under the concentration-time curve extrapolated to infinity. Read a high AUC(0-inf) as high exposure. A word on the Cmax: it is the peak of the concentration-time curve. By Tmax is commonly meant the time at which the peak concentration occurs. By half-life is commonly meant the time in which the quantity being followed falls by half. Lower therefore signals rapid decline.

recombinant CYP4A11 (rCYP4A11), sequence (Q02928 5-519): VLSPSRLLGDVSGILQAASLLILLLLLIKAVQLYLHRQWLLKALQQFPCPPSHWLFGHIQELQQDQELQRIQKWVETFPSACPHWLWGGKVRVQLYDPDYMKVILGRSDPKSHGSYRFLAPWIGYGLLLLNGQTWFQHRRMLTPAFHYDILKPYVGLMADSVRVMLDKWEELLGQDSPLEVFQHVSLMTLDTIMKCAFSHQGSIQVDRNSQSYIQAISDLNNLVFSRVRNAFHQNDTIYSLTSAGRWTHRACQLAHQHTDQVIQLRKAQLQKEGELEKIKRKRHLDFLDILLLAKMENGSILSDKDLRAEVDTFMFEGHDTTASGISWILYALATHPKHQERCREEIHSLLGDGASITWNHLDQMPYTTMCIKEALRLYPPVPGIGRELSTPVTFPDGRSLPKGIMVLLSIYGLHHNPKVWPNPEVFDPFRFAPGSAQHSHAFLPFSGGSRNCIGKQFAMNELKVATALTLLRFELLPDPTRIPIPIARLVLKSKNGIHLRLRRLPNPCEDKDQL

The first data set has as its target recombinant CYP4A11 (rCYP4A11) (Homo sapiens (Human), UniProt Q02928). Put plainly: Inhibition of 20-HETE production by recombinant CYP4A11. Type of data set: biochemical.
Settings: not given
How it is done: (§1) Experimental principle: The inhibitory activity of 20-HETE production is evaluated by testing the inhibitory effects of the compound on human liver microsomes (HLM), rat liver microsomes (RLM), mouse liver microsomes (MLM), or […] CYP4 subtype enzymes (CYP4F2). This assay employs HLM, RLM, or MLM along with recombinant CYP4F2 (rCYP4F2) and recombinant CYP4A11 (rCYP4A11), which are […] CYP4 subtype enzymes, to detect the effects of the test compound at different concentrations on the metabolic rate of enzyme-specific substrates, to determine the inhibitory effects of the test compound on CYP enzymes in HLM, RLM, or MLM.
(§2) Experimental methods: Dissolve the test compound in DMSO, and subsequently dilute it with an acetonitrile and DMSO mixture (3:1). Add 2 μl of varying concentrations of the test compound and 100 μl of potassium phosphate buffer containing either liver microsomes or recombinant enzymes to a 96-well plate. After mixing well, transfer 30 μl to another well (in duplicate), add 15 μl of 400 μM substrate solution, and mix well again. Preheat at 37° C. for 10 minutes, and then add 15 μl of 6 mM NADPH and incubate at 37° C. for 25 minutes. After 25 minutes, add 160 μl of acetonitrile solution (containing 0.1 μg/ml internal standard) to stop the reaction. Mix well, centrifuge at 3500 g for 15 minutes, and then analyze the supernatant using LC-MS/MS.
(§3) Plot the compound concentration on the x-axis and the inhibition rate on the y-axis to draw the curve. Use GraphPad Prism 5 software to fit the curve and calculate the IC50. The formula is Y=Bottom+(Top−Bottom)/(1+10^((Log IC50−X)×HillSlope)). X represents the logarithmic concentration of the inhibitor, and Y represents the relative enzyme activity at a given inhibitor concentration (relative to the condition without the inhibitor).
(§4) Calculate the inhibition percentages at concentrations of 1000 nM, 500 nM, or 100 nM as well as the half-maximal inhibitory concentration (IC50) of the test compound from the above experiment.
As for `O=C1CCCN1CC1CCN(c2ccc(-c3cn[nH]c3)c(F)c2F)CC1` [Compound 4, 1-((1-(2,3-difluoro-4-(1H-pyrazol-4-yl)phenyl)piperidin-4-yl)methyl)pyrrolidin-2-one], the half-inhibitory concentration (IC50) is 53.7 nM.

In another data set the test system is CYP enzymes in rat liver microsomes (RLM). Put plainly: Inhibition of 20-HETE production in rat liver microsomes (RLM). Type of data set: biochemical.
Settings: not given
Summed up: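 Test compounds were dissolved in DMSO, diluted in acetonitrile/DMSO (3:1), and 2 μl was mixed with 100 μl potassium phosphate buffer containing rat liver microsomes in a 96-well plate. Duplicate 30 μl aliquots received 15 μl of 400 μM substrate, were preheated at 37° C. for 10 minutes, then started with 15 μl of 6 mM NADPH for 25 minutes. LC-MS/MS measured 20-HETE formation.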
Background: Liver microsomes are a subcellular fraction often used to study metabolism.
In turn, `O=C1CCCN1CC1CCN(c2ccc(-c3cn[nH]c3)c(F)c2F)CC1` [Compound 4, 1-((1-(2,3-difluoro-4-(1H-pyrazol-4-yl)phenyl)piperidin-4-yl)methyl)pyrrolidin-2-one] returned a concentration for half-maximal inhibition (IC50) of 89.5 nM.

The data set is the same for the next values; noted with them: 500 nM.
In the case of `O=C1CCCN1CC1CCN(c2ccc(-c3cn[nH]c3)c(F)c2F)CC1` [Compound 4, 1-((1-(2,3-difluoro-4-(1H-pyrazol-4-yl)phenyl)piperidin-4-yl)methyl)pyrrolidin-2-one], the “RLM (% inh @ 500 nM)” value amounted to 72.00%.

A further data set concerns CYP enzymes in human liver microsomes (HLM). Put plainly: Inhibition of 20-HETE production in human liver microsomes (HLM). In kind it is biochemical.
Settings: not given
Put shortly:
(§5)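 LC-MS/MS read-out of 20-HETE formation, expressed as activity relative to no-inhibitor control and fitted to a Hill equation for IC50; percent inhibition also given at 1000, 500 or 100 nM. Enzyme sources: recombinant CYP4F2, recombinant CYP4A11, or human or mouse liver microsomes. Each is combined with compound and substrate (400 μM solution) and warmed 10 min at 37 °C, then incubated 25 min at 37 °C after adding NADPH (6 mM solution).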
Regarding `O=C1CCCN1CC1CCN(c2ccc(-c3cn[nH]c3)c(F)c2F)CC1` [Compound 4, 1-((1-(2,3-difluoro-4-(1H-pyrazol-4-yl)phenyl)piperidin-4-yl)methyl)pyrrolidin-2-one], 25.8 nM corresponded to half-maximal inhibition (IC50).

The data set is the same for the next values; noted with them: 500 nM.
In the case of `O=C1CCCN1CC1CCN(c2ccc(-c3cn[nH]c3)c(F)c2F)CC1` [Compound 4, 1-((1-(2,3-difluoro-4-(1H-pyrazol-4-yl)phenyl)piperidin-4-yl)methyl)pyrrolidin-2-one], the “HLM (% inh @ 500 nM)” value was 85.53%.

Tested on in the next data set: not listed separately
Put plainly: Pharmacokinetic (PK) experiment, oral administration in rats. The following applies: 20 mg/kg. In kind it is in vivo, Male SD rats. Summed up:
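Fasted male SD rats (180-250 g) received 20 mg/kg orally in 30% sulfobutylether-β-cyclodextrin. Tail-vein blood sampled 15 min to 24 h post-dose into K2-EDTA; plasma protein-precipitated with acetonitrile containing internal standard and analysed by LC-MS/MS.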
With `O=C1CCCN1CC1CCN(c2ccc(-c3cn[nH]c3)c(F)c2F)CC1` [Compound 4, 1-((1-(2,3-difluoro-4-(1H-pyrazol-4-yl)phenyl)piperidin-4-yl)methyl)pyrrolidin-2-one], the “absorption and blood exposure after oral administration (in words)” value is “well absorbed and exhibit high blood exposure”.

The data set is the same for the next values; noted with them: male, SD, rat, plasma, 20 mg/kg.
Regarding `O=C1CCCN1CC1CCN(c2ccc(-c3cn[nH]c3)c(F)c2F)CC1` [Compound 4, 1-((1-(2,3-difluoro-4-(1H-pyrazol-4-yl)phenyl)piperidin-4-yl)methyl)pyrrolidin-2-one], the total exposure AUC(0-inf) was found to be 59000 ng·h/mL, the highest concentration (Cmax) was 7260 ng/mL, the Tmax is 1.33 h and the half-life was 234 min.

Still in this data set, the particulars now being: male, SD, rat, plasma, 20 mg/kg, read-out: AUC0-24.
Turning to `O=C1CCCN1CC1CCN(c2ccc(-c3cn[nH]c3)c(F)c2F)CC1` [Compound 4, 1-((1-(2,3-difluoro-4-(1H-pyrazol-4-yl)phenyl)piperidin-4-yl)methyl)pyrrolidin-2-one], the AUC(0-t) amounted to 58100 ng·h/mL.

For another data set, the system named is diet-induced obesity (DIO) mouse model. Put plainly: Experiment 2: compound 2 and 4, weight loss and blood glucose lowering in DIO mouse model. In kind it is in vivo, Male C57BL/6J mice. The following applies: 50 mg/kg orally once daily for 4 weeks, DIO mice. An excerpt:
Experiment 2 was to study the effects of compound 2 and 4 on weight loss and blood glucose lowering in a diet-induced obesity (DIO) mouse model. Male C57BL/6J mice were purchased from Zhuhai BST Biotechnology Co., Ltd. and housed in a barrier system animal facility. Animals were randomly divided into 4 groups: normal control group, DIO model control group, DIO model compound 2 treatment group, and DIO model compound 4 treatment group, with 4-5 animals per group. The model control group and treatment groups were first fed with high-fat diet (HFD) for 9 weeks (day 63), and then the treatment groups were orally administered with compound 2 or compound 4 at a dose of 50 mg/kg once daily for 4 consecutive weeks, while continuing to receive HFD. Animal weights were measured weekly, and on the last day of treatment, they were fasted overnight but allowed access to water before an oral glucose tolerance test (OGTT).
In the case of `O=C1CCCN1CC1CCN(c2ccc(-c3cn[nH]c3)c(F)c2F)CC1` [Compound 4, 1-((1-(2,3-difluoro-4-(1H-pyrazol-4-yl)phenyl)piperidin-4-yl)methyl)pyrrolidin-2-one], the fasting blood glucose result is given as “inhibit the increase in fasting blood glucose” and the “glucose metabolism (OGTT)” value is recorded as “enhance glucose metabolism”.

The same data set, now with this note: 50 mg/kg orally once daily, first week of administration, after 9 weeks HFD.
Turning to `O=C1CCCN1CC1CCN(c2ccc(-c3cn[nH]c3)c(F)c2F)CC1` [Compound 4, 1-((1-(2,3-difluoro-4-(1H-pyrazol-4-yl)phenyl)piperidin-4-yl)methyl)pyrrolidin-2-one], the “body weight decrease, of the pre-administration weight” value is given as 12%-16%.

For a further data set, the target named is recombinant CYP4F2 (rCYP4F2) (Homo sapiens (Human), UniProt P78329). Put plainly: Inhibition of 20-HETE production by recombinant CYP4F2. Type of data set: biochemical.
recombinant CYP4F2 (rCYP4F2), sequence (P78329 5-520): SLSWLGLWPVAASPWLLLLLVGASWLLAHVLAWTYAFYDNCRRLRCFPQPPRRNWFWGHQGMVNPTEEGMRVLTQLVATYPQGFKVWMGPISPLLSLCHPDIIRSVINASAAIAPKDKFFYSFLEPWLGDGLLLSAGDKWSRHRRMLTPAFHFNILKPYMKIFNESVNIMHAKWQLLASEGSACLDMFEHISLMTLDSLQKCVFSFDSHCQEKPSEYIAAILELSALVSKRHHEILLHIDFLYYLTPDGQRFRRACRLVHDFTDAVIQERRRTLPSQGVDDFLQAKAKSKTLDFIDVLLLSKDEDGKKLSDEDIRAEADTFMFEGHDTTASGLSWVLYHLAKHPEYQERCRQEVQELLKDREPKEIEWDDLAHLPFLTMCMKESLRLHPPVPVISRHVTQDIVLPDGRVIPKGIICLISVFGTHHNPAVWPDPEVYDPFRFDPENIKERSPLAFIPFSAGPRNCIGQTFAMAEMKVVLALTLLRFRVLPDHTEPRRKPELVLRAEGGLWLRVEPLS
Settings: not given
How it is done:
as §1, §2, §3, §4
On to `O=C1CCCN1CC1CCN(c2ccc(-c3cn[nH]c3)c(F)c2F)CC1` [Compound 4, 1-((1-(2,3-difluoro-4-(1H-pyrazol-4-yl)phenyl)piperidin-4-yl)methyl)pyrrolidin-2-one], for which the half-inhibitory concentration (IC50) was determined as 18.8 nM.

The data set is the same for the next values; noted with them: read-out: rCYP4F2 (% inh @ 100 nM).
Turning to `O=C1CCCN1CC1CCN(c2ccc(-c3cn[nH]c3)c(F)c2F)CC1` [Compound 4, 1-((1-(2,3-difluoro-4-(1H-pyrazol-4-yl)phenyl)piperidin-4-yl)methyl)pyrrolidin-2-one], the inhibition at 0.1 µM was determined as 61.7%.

The next data set deals with CYP enzymes in mouse liver microsomes (MLM). Put plainly: Inhibition of 20-HETE production in mouse liver microsomes (MLM). In kind it is biochemical.
Settings: not given
Put shortly: as §5
`O=C1CCCN1CC1CCN(c2ccc(-c3cn[nH]c3)c(F)c2F)CC1` [Compound 4, 1-((1-(2,3-difluoro-4-(1H-pyrazol-4-yl)phenyl)piperidin-4-yl)methyl)pyrrolidin-2-one] registered a 50% inhibitory concentration (IC50) of 1350 nM.
